Assay results as given in US20190375842A1, “CHECK POINT INHIBITION IN ORGAN FIBROSIS” (VANDERBILT UNIVERSITY, priority 2018, published 2019).

System: human lung fibroblasts/fibrocytes (HLF) co-cultured with sarcoidosis CD4+ T cells
Experiment: CD4+ T cell and human lung fibroblast (HLF) co-culture, collagen I production by flow cytometry
Type: cell-based
Conditions: after exposure to STATTIC
Protocol: The detection of increased collagen-1 production following co-culture of sarcoidosis PD-1+CD4+ cells supported an investigation of the effects of PD-1 pathway blockade on HLF collagen I production. Purified sarcoidosis CD4+ T cells at a final concentration of 2×10^6/mL were cultured overnight in the presence of α-PD-1, α-PD-L1 and α-PD-L2. HLFs were added the following day at a 1:10 ratio (HLF:T cell). […] Similar results were also observed for collagen I producing fibrocytes (CD45^+) that were cultured in the presence of sarcoidosis CD4+ T cells. There was a significant decline in collagen I production of 22% following PD-1 pathway blockade (p=0.0002) (FIG. 7E). Once again, these differences were only observed when HLF were cultured with sorted CD4+ T cells from sarcoidosis patients that had high baseline PD-1 expression on their CD4+ T cells (p=0.0002) (FIG. 7F) but not from patients with low PD-1 (p=0.10) (FIG. 7G).
LN2 frozen PBMC were thawed and readied for CD4+ T cell purification as aforementioned. 4-5×10^5 CD4+ T cells were plated on a 96-well plate at a final concentration of 2×10^6/mL in RPMI 1640-supplemented medium and then allowed to rest at 37° C. in 5% atmospheric CO2 for 2 hours prior to PD-1 pathway blockade or STATS inhibition using STATTIC. […]

Compound: O=[N+]([O-])c1ccc2c(c1)S(=O)(=O)C=C2 [STATTIC]
- collagen 1 production by fibrocytes (sarcoidosis PD-1+CD4+ T cells co-cultured with fibrocytes): significant reduction
- collagen 1 production by fibroblasts (sarcoidosis PD-1+CD4+ T cells co-cultured with human lung fibroblasts): significant reduction
